In patent EP2296651B1, “5-HYDROXYMETHYL-OXAZOLIDIN-2-ONE DERIVATIVES FOR TREATING BACTERIAL INTESTINAL DISEASES” (Actelion Pharmaceuticals Ltd., priority 2008, dated 2009):
In brackets after ≈: the same amount, converted by molar mass. Like-named read-outs stand apart in the source and are kept apart here.

Assays:
E. faecium H 7966 = assay: Broth microdilution MIC, aerobic Gram-positive bacteria; settings: Enterococcus faecium, H7966, 48 h
E. faecalis H 7460 = assay: as above; settings: Enterococcus faecalis, H7460, 48 h
E. faecium H 7965 = assay: as above; settings: Enterococcus faecium, H7965, 48 h
E. faecalis ATCC 29212 = assay: as above; settings: Enterococcus faecalis, ATCC29212, 48 h
E. faecium ATCC 19434 = assay: as above; settings: Enterococcus faecium, ATCC19434, 48 h
[1] = system: C. difficile A-1050 (ATCC 43596); assay: Spore formation at sub-MIC concentrations; assay type: cell-based; settings: 0.5x the MIC; 4 days anaerobic incubation at 37°C
[2] = system: S. aureus ATCC 43300 (MRSA); assay: Broth microdilution MIC, aerobic Gram-positive bacteria; settings: Staphylococcus aureus, 48 h
E. faecalis H 4060 = assay: as above; settings: Enterococcus faecalis, H4060, 48 h
E. faecium H 9070 = assay: as above; settings: Enterococcus faecium, H9070, 48 h
E. faecium H 7937 = assay: as above; settings: Enterococcus faecium, H7937, 48 h
E. faecalis H 6897 = assay: as above; settings: Enterococcus faecalis, H6897, 48 h
S. aureus A-798 (MRSA) = assay: as above; settings: Staphylococcus aureus, 48 h
[3] = system: C. difficile strain NC 13366; assay: microbe, parasite or virus in culture; assay type: cell-based
E. faecalis H 6279 = assay: Broth microdilution MIC, aerobic Gram-positive bacteria; settings: Enterococcus faecalis, H6279, 48 h
[4] = system: 209 diverse clinical isolates of C. difficile; assay: CLSI agar dilution MIC, clinical isolates; assay type: cell-based, Clostridium difficile; settings: Clostridioides difficile, 48 h
E. faecium L1 (LZD-R) = assay: Broth microdilution MIC, aerobic Gram-positive bacteria; settings: Enterococcus faecium, 48 h
E. faecium H 7969 = assay: as above; settings: Enterococcus faecium, H7969, 48 h
S. aureus S1 (LZD-R) = assay: as above; settings: Staphylococcus aureus, 48 h
E. faecium A 962 = assay: as above; settings: Enterococcus faecium, A962, 48 h
S. aureus ATCC 29213 = assay: as above; settings: Staphylococcus aureus, ATCC29213, 48 h
E. faecalis H 7094 = assay: as above; settings: Enterococcus faecalis, H7094, 48 h
E. faecium A 949 = assay: as above; settings: Enterococcus faecium, A949, 48 h
[5] = system: C. difficile strain NC 13366; assay type: cell-based
C. difficile ATCC 43596 = assay: Broth microdilution MIC, anaerobic; assay type: cell-based, Clostridium difficile; settings: Clostridioides difficile, ATCC43596, 48h at 37°C, read-out: MIC regarding C. difficile ATCC 43596
C. perfringens DSM 756 = assay: microbe, parasite or virus in culture; assay type: cell-based; settings: Clostridium perfringens, DSM756, 48 h, read-out: MIC regarding C. perfringens DSM 756
C. difficile NC 13366 = assay: Broth microdilution MIC, anaerobic; assay type: cell-based, Clostridium difficile; settings: Clostridioides difficile, NC13366, 48h at 37°C, quinolone-resistant hypervirulent strain, read-out: MIC regarding C. difficile NC 13366
C. difficile ATCC 9689 = assay: Broth microdilution MIC, anaerobic; assay type: cell-based, Clostridium difficile; settings: Clostridioides difficile, ATCC9689, 48h at 37°C, read-out: MIC regarding C. difficile ATCC 9689

Compound | MIC (E. faecium H 7966) [µg/mL] | MIC (E. faecalis H 7460) [µg/mL] | MIC (E. faecium H 7965) [µg/mL] | MIC (E. faecalis ATCC 29212) [µg/mL] | MIC (E. faecium ATCC 19434) [µg/mL] | spores of total cell count [1] [%] | MIC [2] [µg/mL] | MIC (E. faecalis H 4060) [µg/mL] | MIC (E. faecium H 9070) [µg/mL] | MIC (E. faecium H 7937) [µg/mL] | MIC (E. faecalis H 6897) [µg/mL] | MIC (S. aureus A-798 (MRSA)) [µg/mL] | MIC (E. faecalis H 6279) [µg/mL] | MIC (E. faecium L1 (LZD-R)) [µg/mL] | MIC (E. faecium H 7969) [µg/mL] | MIC (S. aureus S1 (LZD-R)) [µg/mL] | MIC (E. faecium A 962) [µg/mL] | MIC (S. aureus ATCC 29213) [µg/mL] | MIC (E. faecalis H 7094) [µg/mL] | MIC (E. faecium A 949) [µg/mL] | other results
CN[C@H](CC(C)C)C(=O)N[C@H]1C(=O)N[C@@H](CC(N)=O)C(=O)N[C@H]2C(=O)N[C@H]3C(=O)N[C@H](C(=O)N[C@H](C(=O)O)c4cc(O)cc(O)c4-c4cc3ccc4O)[C@H](O)c3ccc(c(Cl)c3)Oc3cc2cc(c3O[C@@H]2O[C@H](CO)[C@@H](O)[C@H](O)[C@H]2O[C@H]2C[C@](C)(N)[C@H](O)[C@H](C)O2)Oc2ccc(cc2Cl)[C@H]1O [vancomycin] | > 32 | > 32 | > 32 | 1 (≈ 0.69 µM) | 1 (≈ 0.69 µM) | > 90 | 1 (≈ 0.69 µM) | > 32 | > 32 | > 32 | > 32 | 1 (≈ 0.69 µM) | > 32 | 0.5 (≈ 0.345 µM) | > 32 | 1 (≈ 0.69 µM) | > 32 | 1 (≈ 0.69 µM) | > 32 | > 32 | toxin B activities of the supernatants, reduction compared to the untreated control [3]: not reduced; inhibition at 8 µg/mL ([3]; Clostridioides difficile, NC13366, CHO, 120 h, read-out: toxin B activities of the supernatants, reduction compared to the untreated control): 30%; MIC90 [4]: 2 µg/mL (≈ 1.38 µM); de novo toxin A production [5]: did not inhibit toxin A production under these conditions or did so only weakly
O=C(O)c1cn(C2CC2)c2nc(N3CCC(O)(COc4ccc(N5C[C@H](CO)OC5=O)cc4F)CC3)c(F)cc2c1=O [Example 2, 1-cyclopropyl-6-fluoro-7-{4-[2-fluoro-4-((R)-5-hydroxymethyl-2-oxo-oxazolidin-3-yl)phenoxymethyl]-4-hydroxy-piperidin-1-yl}-4-oxo-1,4-dihydro-[1,8]naphthyridine-3-carboxylic acid] |  |  |  |  |  |  |  |  |  |  |  |  |  |  |  |  |  |  |  |  | MIC (C. difficile ATCC 43596): 0.06 µg/mL (≈ 0.102 µM); MIC (C. perfringens DSM 756): ≤ 0.03 µg/mL; MIC (C. difficile NC 13366): 0.03 µg/mL (≈ 0.0511 µM)
Cc1ncc([N+](=O)[O-])n1CCO [metronidazole] |  |  |  |  |  | > 90 |  |  |  |  |  |  |  |  |  |  |  |  |  |  | de novo toxin A production ([5]; 1 and 8 µg/ml, supernatants at day 5, high density stationary phase cultures): did not inhibit toxin A production under these conditions or did so only weakly
CC(=O)NC[C@H]1CN(c2ccc(N3CCOCC3)c(F)c2)C(=O)O1 [Linezolid] | 1 (≈ 2.96 µM) | 16 (≈ 47.4 µM) | 2 (≈ 5.93 µM) | 2 (≈ 5.93 µM) | 2 (≈ 5.93 µM) |  | 2 (≈ 5.93 µM) | 2 (≈ 5.93 µM) | 2 (≈ 5.93 µM) | 1 (≈ 2.96 µM) | 4 (≈ 11.9 µM) | 2 (≈ 5.93 µM) | 2 (≈ 5.93 µM) | > 32 | 4 (≈ 11.9 µM) | > 32 | 4 (≈ 11.9 µM) | 2 (≈ 5.93 µM) | 4 (≈ 11.9 µM) | 2 (≈ 5.93 µM) | MIC (C. difficile ATCC 43596): 8 µg/mL (≈ 23.7 µM); MIC (C. perfringens DSM 756): 4 µg/mL (≈ 11.9 µM); MIC (C. difficile NC 13366): 1 µg/mL (≈ 2.96 µM); MIC90 ([4]; 209 clinical isolates of C. difficile, read-out: MIC90): 8 µg/mL (≈ 23.7 µM); MIC (C. difficile ATCC 9689): 2 µg/mL (≈ 5.93 µM)
